From a melting point compilation (Tetko et al.; mined from patent text by program, amines drawn as free bases though some values may be those of a salt)

Compound	melting point [°C]
Cc1ccc(NS(=O)(=O)c2ccc(-c3cnc4[nH]c(CCC5CCCCC(=S)N5)nc4c3)cc2)c(F)c1 (configuration not stated)	271
O=C1c2cccc([N+](=O)[O-])c2C(=O)N1CCO	93
CCc1ccc(-c2c3ccccc3c(-c3ccc(CC)cc3)c3cc(Cl)ccc23)cc1	214 to 216
N#Cc1ccc(OCC(F)(F)F)c(F)c1	62 to 67
CCCCn1c(=O)c2nc(C(=O)O)cn2c2ccccc21	220 to 222
CC1(C)CC(=O)C(C(=O)Nc2ccc(Cl)c(Cl)c2)C(=O)C1	124 to 129
C[C@H]1Cn2c(=O)[nH]c3cccc(c32)CN1	190
O=c1c(CCCCCCCc2ccncc2)cc2cccnc2n1-c1cccc([N+](=O)[O-])c1	189 to 192
Cc1ccc2c(C(=O)O)cn(C(C)C)c2c1	185 to 186
COc1cc(OC)nc(NC(=O)NS(=O)(=O)c2ccccc2Cc2nnc(SC)s2)n1	171 to 175
O=C1NCc2cc(Br)sc21	96 to 97
COC(=O)c1cc(C(=O)O)ccc1N	224
CC(CC1(c2ccc(Cl)cc2)CCC1)NC=O (configuration not stated)	71 to 73
CS(=O)c1ccc(-c2ccc(C=C(Cl)Cl)s2)cc1 (configuration not stated)	124 to 126
COC(=O)c1cc2ccc(C(=O)NCCN3CCOCC3)cc2[nH]1	226 to 228
C=CCNC(=O)n1nc(-c2ccccc2)cc1NC(=O)CC(=O)C(F)(F)F	114 to 116
CN(C)C(=S)Oc1ccc(C(=O)c2ccc(C#N)cc2)cc1	162
O=c1n(CCCC2CCCC2)ccn1-c1ccc(NS(=O)(=O)c2ccc3c(c2)CCC(CNCC(O)c2cccnc2)O3)cc1 (configuration not stated)	90 to 92
Cc1ccc(C(=O)Nc2cccc(C(F)(F)F)c2)cc1/C=C/n1cnc2c(NC3CC3)ncnc21	201
O=C1SCNc2sccc21	153 to 155
CC(=O)Nc1ccccc1Nc1ccc(C(=O)c2ccccc2)cc1	155 to 157
COC(=O)C(C#N)c1ncc(Cl)cc1Cl (configuration not stated)	109 to 110
COc1cc(N)c(CCN2CCN(c3nsc4ccccc34)CC2)cc1OC	55
CCCCCS(=O)c1cccc(-c2nc(=O)c3ccccc3s2)n1 (configuration not stated)	146 to 147
Nc1cc2nc(-c3ccccc3)nn2cc1F	> 250
CCOC(=O)C(=O)OCc1ccc(OC)cc1	44 to 45

Compound	melting point [°C]
CCCn1nc2c(N)nc3ccccc3c2c1CC(C)(C)NC(=O)NC(C)C	190 to 191
C=CCn1c(NC=O)nc(N2CCc3ccccc3CC2)c(C#N)c1=O	> 200
COC(=O)Cn1c(CCc2ccccc2)ccc(NC(=O)OCc2ccccc2)c1=O	102 to 104
CCN1C(=O)C(C)(C)C(=O)N(C)c2cc(CN(CCn3c(=O)ccc4ccccc43)Cc3cccnc3C)ccc21	149 to 150
CN1CCC(Oc2c(F)cc3c(=O)c(C(=O)O)cn(C4CC4)c3c2F)CC1	166 to 167
CCCc1nc(SC)c(C(O)CO)n1Cc1ccc(-c2ccccc2S(=O)(=O)NC(=O)NCc2ccccc2)cc1 (configuration not stated)	140
O=CNC1=NN(c2ccccc2)CC1	140 to 141
CN1C(=O)CCC(C)(C)c2cc(Nc3ncc(Cl)c(Nc4ccccc4-n4cccn4)n3)ccc21	136 to 138
CC1C(=O)NC(=O)NC1=O	200 to 215
COc1ccc(-n2nc(C(C)(C)C)cc2NC(=O)c2cccc3cc(Oc4cc(Cl)ncn4)ccc23)cc1	163 to 164
Cc1cccc(C(=O)Nc2cccc(C(F)(F)F)c2)c1NCc1ccncc1	94 to 98
CC(C)(C)c1nn(-c2ccc([N+](=O)[O-])cc2Cl)c(=O)o1	98
COC1=C(OC)C(=O)C(CCCCCCCCCCCO)=C(C)C1=O	57
O=C(O)[C@@H]1Cc2c(ncn2Cc2ccccc2)CN1C(=O)C(c1ccc(Cl)cc1)c1ccc(Cl)cc1	162 to 170
Clc1ccc(CCOc2ncnc3ncccc23)cc1	126 to 128
CSC(Cc1ccc2oc(Cc3nc(-c4cccc(C)c4)oc3C)cc2c1)C(=O)O (configuration not stated)	125 to 127
Nc1ccc(Oc2c(NCc3ccccc3)cc(C(=O)O)cc2S(N)(=O)=O)cc1	272
COC(=O)C1CCC(n2ccn(-c3ccc4c(c3)CCC(C#N)C4)c2=O)CC1 (configuration not stated)	116 to 118
O=C(O)c1ccc(C(c2ccc(C(=O)O)c([N+](=O)[O-])c2)(C(F)(F)F)C(F)(F)F)cc1[N+](=O)[O-]	235 to 238
CSc1ccc(-c2coc3ccc(C(=O)NN)nc23)cc1	240 to 241
COc1ccc(C(C)(C)c2cc(C(C)(C)C)cc(-n3nc4ccc(C(F)(F)F)cc4n3)c2O)cc1	140
CC(C)c1nc(-c2ccccc2)c(F)c(-c2ccc(F)cc2)c1C=O	136 to 137
O=S1(=O)N=CN(CCF)c2cc(Cl)c(Cl)cc21	233 to 234
Cn1nc(C(C)(C)c2ccc(Cl)cc2)nc1-c1c(F)cccc1Cl	97 to 100
C[N+]1([O-])CC(c2ccccn2)C(=O)c2ccccc21 (configuration not stated)	132 to 134
Cc1c(OC(F)F)ccnc1CSc1nc2ccc(O)cc2[nH]1	214 to 215

Compound	melting point [°C]
COCc1ccc2ccc(C=O)nc2c1Cl	118 to 121
O=c1[nH]c2cc(Cl)c(Cl)c(Cl)c2o1	253 to 254
CCOC(=O)/C=C/c1cn(-c2ccc(C(F)(F)F)cn2)nc1C	131 to 132
CC(=O)Nc1ccc(C=C2c3ccccc3CCc3ccccc32)cc1	135
Oc1ccc2c(c1)C13CCCCC1N(C2)NCC3 (single isomer, unassigned; (-))	244 to 246
CC(C)(CCl)c1cc(Cl)nnc1Cl	66.5 to 68.5
COc1cccc(N2CCC(NC(C)=O)CC2)n1	125 to 127
C#CC1(O)CCc2c(O)c3c(c(O)c2C1)C(=O)c1ccccc1C3=O (configuration not stated)	230
Cc1ccc2c(c1)C1(OCCCO1)C(=O)N2	128 to 130
COc1ccc(CC(=O)N2C=CC(C)(C)C=C2)cc1OC	86 to 89.5
CCCNCc1nc(-c2ncn3c2[C@@H]2CCN2C(=O)c2c(Cl)cccc2-3)no1	237 to 239
COC(=O)C1=C(C#N)NC(C)=C(C(=O)OC(C)C)C1c1ccccc1[N+](=O)[O-] (configuration not stated)	176
CC1(C)C=C(C(=O)NCCC#N)c2cc(C(F)(F)C(F)(F)F)ccc2O1	163 to 164
Cc1cc(C)c2c(c1)c(-c1ccccc1Cl)c(NC(=O)Nc1ccc(F)cc1F)c(=O)n2C	225 to 227
CC1(C)CCC(C)(C)c2c(O)cc(-c3ccccc3)cc21	121
Cn1c(-c2ccccc2)c2ccsc2nc1=O	175 to 181
CCOC(=O)C1=Cc2cc(Cl)cc(C)c2NC1C(F)(F)F (configuration not stated)	154 to 155
NNC(=O)c1ccc2occ(-c3cccc(OC(F)(F)F)c3)c2c1	137 to 138
COc1cc(O)c2c(=O)c(OC)c(-c3ccc(O)cc3OC)oc2c1	191 to 192
CC(C)c1ccc(NC=CS(=O)(=O)F)cc1	41 to 43
N#CSc1ccc(C=O)cc1	82 to 83
C#CCC(=NO)C1=CCCN(C)C1	55 to 57
CCN(CC)C1=CC(=O)C(=O)C=C1N(CC)CC	100 to 103
CCOC(=O)C(=O)CC(=O)/C=C/c1ccc(Cl)cc1F	84 to 85
Cc1ccc(-c2cc3c4cc(C)ccc4n(C)c3n(C)c2=O)c(C)c1	150
Cc1ccc([N+](=O)[O-])cc1Nc1cc(-c2cccnc2)ccn1	170 to 173

Compound	melting point [°C]
Cc1ccc(-c2nc(C(F)(F)F)oc2-c2ccc(S(C)(=O)=O)cc2)cc1	141 to 142
COC(=O)c1sc2ccc(C#N)cc2c1N	248
CC(C(=O)O)c1cccc(C(=O)c2cc3sccc3s2)c1 (configuration not stated)	133
O=C(O)CS(=O)(=O)CCCCCn1nc(-c2ccccc2)c(-c2ccccc2)c1-c1ccccc1	200
CS(=O)(=O)c1ccc(C(=O)C2C(=O)N(C(N)=O)c3ccc(Cl)cc32)s1 (configuration not stated)	212 to 214
O=C1NCC=Cc2cc[nH]c21	155 to 160
CCc1ncnc2cc(OC)c(OCC3CO3)cc12 (configuration not stated)	120 to 122
O=C(c1ccc(F)cc1)C1(n2cncn2)CC1	73 to 75
COc1ccc2onc(CC(N)=NO)c2c1	180 to 183
CS(=O)(=O)c1ccc(-n2nc(C(F)(F)F)cc2-c2ccc(-c3cscn3)cc2)cc1F	125 to 127
CCCC=Cc1c(C(C)C)nc(C(C)C)c(CO)c1-c1ccccc1C	76 to 79
CCC(=O)N(C)c1cccc(-c2ccnc3c(C(=O)c4ccccc4)cnn23)c1	154 to 156
CC1(C)CCC(C)(C)c2cc(COc3cccc(C(=O)O)c3-c3ccc(CCO)cc3)ccc21	201 to 203
COC(=O)c1nccnc1NS(=O)(=O)c1cccc(Cl)c1Cl	177 to 178
N=C(N)Nc1nc(CCCCNc2c(NCCCCc3csc(NC(=N)N)n3)c(=O)c2=O)cs1	228 to 229
C[C@H](N[C@@H]1CNC(=O)C12CC2)c1ccccc1	107 to 110
Cc1ccc(NC(=O)c2cccc(N(C)C)c2)cc1NC(=O)c1cccc(N(C)S(C)(=O)=O)c1	168 to 169
CSc1ccc(C=C2C(=O)c3ccccc3CC2OCCn2ccnc2)cc1 (configuration not stated)	161 to 162
CCC(=O)Oc1cc(OC)cc(OC)c1C(=O)C=Cc1ccc(C)cc1	156
CCCCc1nn(-c2ccccc2C(F)(F)F)c(=O)n1Cc1ccc(-c2ccccc2S(=O)(=O)NC(=O)[C@H]2CC2(C)C)cc1	93 to 95
CCCCNC(=O)[C@@H](C[C@H](O)[C@@H](N)CC1CCCCCC1)C(C)C	81 to 82
COCCOC(=O)C1=C(C)Nc2cc[nH]c(=O)c2C1c1ccccc1[N+](=O)[O-] (configuration not stated)	265
CCCn1nc2c(N)nc3c(c2c1CCCCO)CCCC3	194 to 200
N#Cc1ccc(CBr)c2ccccc12	131 to 133
